Measurements reported in ChEMBL document CHEMBL1135265, “Squaric acid derivatives as VLA-4 integrin antagonists” (Bioorg Med Chem Lett, 2002).

System: not listed separately
Assay: Rate constant (k) of clearance from isolated perfused rat liver (IPRL)
Type: ADME

Going from `CCC/N=c1\c(O)c(O)\c1=N/[C@@H](Cc1ccc(Oc2ncccn2)cc1)C(=O)O` to `CCN(CC)c1c(N[C@@H](Cc2ccc(Oc3ncccn3)cc2)C(=O)O)c(=O)c1=O`, the k el rises from 0.000167 s⁻¹ to 0.00075 s⁻¹ (4.5-fold).

`O=C(Nc1ccc(C[C@H](/N=c2\c(O)c(O)\c2=N/C2CCCC2)C(=O)O)cc1)c1c(Cl)cncc1Cl` and `O=C(Nc1ccc(C[C@H](/N=c2\c(O)c(O)\c2=N/C2CCC2)C(=O)O)cc1)c1c(Cl)cncc1Cl` are the same in k el: 0.000139 s⁻¹ for the first, 0.000139 s⁻¹ for the second.

First: CC(C)/N=c1\c(O)c(O)\c1=N/[C@@H](Cc1ccc(NC(=O)c2c(Cl)cncc2Cl)cc1)C(=O)O
Second: CC(C)C/N=c1\c(O)c(O)\c1=N/[C@@H](Cc1ccc(NC(=O)c2c(Cl)cncc2Cl)cc1)C(=O)O
The k el of the first is 2-fold higher: 0.000722 s⁻¹ for the first, 0.000361 s⁻¹ for the second.

`CCCCN(CCCC)c1c(N[C@@H](Cc2ccc(NC(=O)c3c(Cl)cncc3Cl)cc2)C(=O)O)c(=O)c1=O` and `CCN(CC)c1c(N[C@@H](Cc2ccc(NC(=O)c3c(Cl)cncc3Cl)cc2)C(=O)O)c(=O)c1=O` are within 1.5-fold of each other in k el: 0.00183 s⁻¹ for the first, 0.00161 s⁻¹ for the second.

Going from `O=C(Nc1ccc(C[C@H](/N=c2\c(O)c(O)\c2=N/c2ccccc2)C(=O)O)cc1)c1c(Cl)cncc1Cl` to `CC/N=c1\c(O)c(O)\c1=N/[C@@H](Cc1ccc(NC(=O)c2c(Cl)cncc2Cl)cc1)C(=O)O`, the k el rises from 0.000306 s⁻¹ to 0.000556 s⁻¹ (1.8-fold).

Compared with `O=C(Nc1ccc(C[C@H](/N=c2/c(N3CCCCC3)c(O)c2=O)C(=O)O)cc1)c1c(Cl)cncc1Cl`, `O=C(Nc1ccc(C[C@H](/N=c2\c(O)c(O)\c2=N/C2CC2)C(=O)O)cc1)c1c(Cl)cncc1Cl` is 3-fold lower in k el: 0.00131 s⁻¹ for the first, 0.000444 s⁻¹ for the second.

First: C=CC/N=c1\c(O)c(O)\c1=N/[C@@H](Cc1ccc(NC(=O)c2c(Cl)cncc2Cl)cc1)C(=O)O
Second: COCC/N=c1\c(O)c(O)\c1=N/[C@@H](Cc1ccc(NC(=O)c2c(Cl)cncc2Cl)cc1)C(=O)O
The k el of the first is 4.5-fold lower: 0.000111 s⁻¹ for the first, 0.0005 s⁻¹ for the second.

Compared with `CC(C)(C)/N=c1\c(O)c(O)\c1=N/[C@@H](Cc1ccc(NC(=O)c2c(Cl)cncc2Cl)cc1)C(=O)O`, `CCCC/N=c1\c(O)c(O)\c1=N/[C@@H](Cc1ccc(NC(=O)c2c(Cl)cncc2Cl)cc1)C(=O)O` is 2.7-fold lower in k el: 0.000972 s⁻¹ for the first, 0.000361 s⁻¹ for the second.

Going from `CCN(CC)c1c(N[C@@H](Cc2ccc(-c3ccccc3OC)cc2)C(=O)O)c(=O)c1=O` to `CCN(CC)c1c(N[C@@H](Cc2ccc(OCc3c(Cl)cccc3Cl)cc2)C(=O)O)c(=O)c1=O`, the k el rises from 0.000611 s⁻¹ to 0.00108 s⁻¹ (1.8-fold).

Target: T1, Integrin alpha-4/beta-1 (Homo sapiens, UniProt P05556+P13612)
Assay: Inhibition of binding of Very late antigen 4/vascular cell adhesion molecule 1 in a cell based ligand binding assay (Jurkat cells)

T1 sequence (P05556 whole entry): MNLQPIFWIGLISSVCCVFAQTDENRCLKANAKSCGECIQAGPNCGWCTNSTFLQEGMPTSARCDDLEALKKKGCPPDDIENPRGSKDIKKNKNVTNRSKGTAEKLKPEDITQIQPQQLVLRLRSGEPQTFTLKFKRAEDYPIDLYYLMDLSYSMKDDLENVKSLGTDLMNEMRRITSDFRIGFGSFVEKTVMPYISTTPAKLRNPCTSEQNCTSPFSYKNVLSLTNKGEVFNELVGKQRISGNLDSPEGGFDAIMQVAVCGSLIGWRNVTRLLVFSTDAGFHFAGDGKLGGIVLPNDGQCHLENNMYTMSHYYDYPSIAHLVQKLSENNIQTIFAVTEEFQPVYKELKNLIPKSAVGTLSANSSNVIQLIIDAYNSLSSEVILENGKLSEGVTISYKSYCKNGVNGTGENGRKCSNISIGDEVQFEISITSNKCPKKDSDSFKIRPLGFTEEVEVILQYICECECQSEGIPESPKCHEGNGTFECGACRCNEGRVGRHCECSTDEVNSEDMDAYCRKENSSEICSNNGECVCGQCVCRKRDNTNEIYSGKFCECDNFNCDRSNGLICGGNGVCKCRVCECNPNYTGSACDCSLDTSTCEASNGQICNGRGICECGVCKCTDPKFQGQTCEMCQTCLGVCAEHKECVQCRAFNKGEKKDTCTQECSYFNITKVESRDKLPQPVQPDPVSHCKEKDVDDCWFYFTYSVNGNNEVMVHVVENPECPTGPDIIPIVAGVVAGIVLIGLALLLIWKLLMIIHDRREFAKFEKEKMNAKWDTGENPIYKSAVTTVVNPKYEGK
T1 sequence (P13612 whole entry): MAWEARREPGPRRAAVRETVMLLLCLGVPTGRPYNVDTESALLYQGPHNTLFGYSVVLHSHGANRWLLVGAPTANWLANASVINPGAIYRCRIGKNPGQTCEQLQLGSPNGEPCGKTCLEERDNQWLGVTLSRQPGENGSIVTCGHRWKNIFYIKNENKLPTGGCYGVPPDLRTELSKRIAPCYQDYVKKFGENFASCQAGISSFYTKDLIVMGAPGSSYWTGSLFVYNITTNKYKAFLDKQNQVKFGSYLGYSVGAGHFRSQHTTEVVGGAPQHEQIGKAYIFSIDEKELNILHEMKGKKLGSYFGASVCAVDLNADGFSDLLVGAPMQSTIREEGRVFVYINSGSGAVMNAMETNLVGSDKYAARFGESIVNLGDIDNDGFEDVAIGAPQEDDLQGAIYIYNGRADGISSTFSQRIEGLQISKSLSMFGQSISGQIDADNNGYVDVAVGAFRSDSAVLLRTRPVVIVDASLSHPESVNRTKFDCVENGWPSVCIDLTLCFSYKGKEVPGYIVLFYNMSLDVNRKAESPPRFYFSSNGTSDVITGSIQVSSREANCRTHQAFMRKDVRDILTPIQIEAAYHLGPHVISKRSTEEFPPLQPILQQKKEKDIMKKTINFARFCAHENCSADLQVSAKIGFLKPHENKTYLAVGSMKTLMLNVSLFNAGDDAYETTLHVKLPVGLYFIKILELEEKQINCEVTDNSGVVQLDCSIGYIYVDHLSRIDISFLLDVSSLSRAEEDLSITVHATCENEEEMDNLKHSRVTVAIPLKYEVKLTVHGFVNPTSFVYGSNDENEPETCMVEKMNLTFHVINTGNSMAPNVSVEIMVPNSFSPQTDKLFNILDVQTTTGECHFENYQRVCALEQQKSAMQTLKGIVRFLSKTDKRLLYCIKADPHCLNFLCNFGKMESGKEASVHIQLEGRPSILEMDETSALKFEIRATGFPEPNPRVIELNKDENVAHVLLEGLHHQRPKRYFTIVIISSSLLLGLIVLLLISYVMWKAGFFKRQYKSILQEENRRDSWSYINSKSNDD

Compared with `CCC/N=c1\c(O)c(O)\c1=N/[C@@H](Cc1ccc(Oc2ncccn2)cc1)C(=O)O`, `CCN(CC)c1c(N[C@@H](Cc2ccc(Oc3ncccn3)cc2)C(=O)O)c(=O)c1=O` is 3.6-fold lower in IC50: 8200 nM for the first, 2300 nM for the second.

Compared with `O=C(Nc1ccc(C[C@H](/N=c2\c(O)c(O)\c2=N/C2CCCC2)C(=O)O)cc1)c1c(Cl)cncc1Cl`, `O=C(Nc1ccc(C[C@H](/N=c2\c(O)c(O)\c2=N/C2CCC2)C(=O)O)cc1)c1c(Cl)cncc1Cl` is 1.9-fold lower in IC50: 290 nM for the first, 155 nM for the second. The second is the more potent here.

`CC(C)/N=c1\c(O)c(O)\c1=N/[C@@H](Cc1ccc(NC(=O)c2c(Cl)cncc2Cl)cc1)C(=O)O` and `CC(C)C/N=c1\c(O)c(O)\c1=N/[C@@H](Cc1ccc(NC(=O)c2c(Cl)cncc2Cl)cc1)C(=O)O` are within 1.5-fold of each other in IC50: 95 nM for the first, 85 nM for the second.

Going from `CCCCN(CCCC)c1c(N[C@@H](Cc2ccc(NC(=O)c3c(Cl)cncc3Cl)cc2)C(=O)O)c(=O)c1=O` to `CCN(CC)c1c(N[C@@H](Cc2ccc(NC(=O)c3c(Cl)cncc3Cl)cc2)C(=O)O)c(=O)c1=O`, the IC50 falls from 5.7 nM to 3.5 nM (1.6-fold).

Going from `O=C(Nc1ccc(C[C@H](/N=c2\c(O)c(O)\c2=N/c2ccccc2)C(=O)O)cc1)c1c(Cl)cncc1Cl` to `CC/N=c1\c(O)c(O)\c1=N/[C@@H](Cc1ccc(NC(=O)c2c(Cl)cncc2Cl)cc1)C(=O)O`, the IC50 falls from 845 nM to 425 nM (2-fold).

Compared with `O=C(Nc1ccc(C[C@H](/N=c2/c(N3CCCCC3)c(O)c2=O)C(=O)O)cc1)c1c(Cl)cncc1Cl`, `O=C(Nc1ccc(C[C@H](/N=c2\c(O)c(O)\c2=N/C2CC2)C(=O)O)cc1)c1c(Cl)cncc1Cl` is 30-fold higher in IC50: 8.4 nM for the first, 250 nM for the second. The first is the more potent here.

First: C=CC/N=c1\c(O)c(O)\c1=N/[C@@H](Cc1ccc(NC(=O)c2c(Cl)cncc2Cl)cc1)C(=O)O
Second: COCC/N=c1\c(O)c(O)\c1=N/[C@@H](Cc1ccc(NC(=O)c2c(Cl)cncc2Cl)cc1)C(=O)O
The IC50 of the first is 1.6-fold higher: 120 nM for the first, 75 nM for the second. The second is the more potent here.

Going from `CC(C)(C)/N=c1\c(O)c(O)\c1=N/[C@@H](Cc1ccc(NC(=O)c2c(Cl)cncc2Cl)cc1)C(=O)O` to `CCCC/N=c1\c(O)c(O)\c1=N/[C@@H](Cc1ccc(NC(=O)c2c(Cl)cncc2Cl)cc1)C(=O)O`, the IC50 falls from 690 nM to 130 nM (5.3-fold).

Going from `CCN(CC)c1c(N[C@@H](Cc2ccc(-c3ccccc3OC)cc2)C(=O)O)c(=O)c1=O` to `CCN(CC)c1c(N[C@@H](Cc2ccc(OCc3c(Cl)cccc3Cl)cc2)C(=O)O)c(=O)c1=O`, the IC50 rises from 1160 nM to 12400 nM (11-fold). The first is the more potent here.

Target: T1, Integrin alpha-4/beta-1
Assay: Inhibition of binding of Very late antigen 4/vascular cell adhesion molecule 1 in a protein-based ligand binding assay
Type: protein-complex assay

Compared with `CCC/N=c1\c(O)c(O)\c1=N/[C@@H](Cc1ccc(Oc2ncccn2)cc1)C(=O)O`, `CCN(CC)c1c(N[C@@H](Cc2ccc(Oc3ncccn3)cc2)C(=O)O)c(=O)c1=O` is 4.6-fold lower in IC50: 6.9 nM for the first, 1.5 nM for the second.

Compared with `O=C(Nc1ccc(C[C@H](/N=c2\c(O)c(O)\c2=N/C2CCCC2)C(=O)O)cc1)c1c(Cl)cncc1Cl`, `O=C(Nc1ccc(C[C@H](/N=c2\c(O)c(O)\c2=N/C2CCC2)C(=O)O)cc1)c1c(Cl)cncc1Cl` is 3.5-fold lower in IC50: 9 nM for the first, 2.6 nM for the second. The second is the more potent here.

First: CC(C)/N=c1\c(O)c(O)\c1=N/[C@@H](Cc1ccc(NC(=O)c2c(Cl)cncc2Cl)cc1)C(=O)O
Second: CC(C)C/N=c1\c(O)c(O)\c1=N/[C@@H](Cc1ccc(NC(=O)c2c(Cl)cncc2Cl)cc1)C(=O)O
The IC50 of the first is 2-fold higher: 1 nM for the first, 0.5 nM for the second.

First: CCCCN(CCCC)c1c(N[C@@H](Cc2ccc(NC(=O)c3c(Cl)cncc3Cl)cc2)C(=O)O)c(=O)c1=O
Second: CCN(CC)c1c(N[C@@H](Cc2ccc(NC(=O)c3c(Cl)cncc3Cl)cc2)C(=O)O)c(=O)c1=O
The IC50 of the first is 5-fold higher: 2 nM for the first, 0.4 nM for the second.

Compared with `O=C(Nc1ccc(C[C@H](/N=c2\c(O)c(O)\c2=N/c2ccccc2)C(=O)O)cc1)c1c(Cl)cncc1Cl`, `CC/N=c1\c(O)c(O)\c1=N/[C@@H](Cc1ccc(NC(=O)c2c(Cl)cncc2Cl)cc1)C(=O)O` is 83-fold lower in IC50: 50 nM for the first, 0.6 nM for the second.

First: O=C(Nc1ccc(C[C@H](/N=c2/c(N3CCCCC3)c(O)c2=O)C(=O)O)cc1)c1c(Cl)cncc1Cl
Second: O=C(Nc1ccc(C[C@H](/N=c2\c(O)c(O)\c2=N/C2CC2)C(=O)O)cc1)c1c(Cl)cncc1Cl
The IC50 of the first is 3.8-fold lower: 0.4 nM for the first, 1.5 nM for the second. The first is the more potent here.

`C=CC/N=c1\c(O)c(O)\c1=N/[C@@H](Cc1ccc(NC(=O)c2c(Cl)cncc2Cl)cc1)C(=O)O` and `COCC/N=c1\c(O)c(O)\c1=N/[C@@H](Cc1ccc(NC(=O)c2c(Cl)cncc2Cl)cc1)C(=O)O` are within 1.5-fold of each other in IC50: 1 nM for the first, 1.2 nM for the second.

First: CC(C)(C)/N=c1\c(O)c(O)\c1=N/[C@@H](Cc1ccc(NC(=O)c2c(Cl)cncc2Cl)cc1)C(=O)O
Second: CCCC/N=c1\c(O)c(O)\c1=N/[C@@H](Cc1ccc(NC(=O)c2c(Cl)cncc2Cl)cc1)C(=O)O
The IC50 of the first is 8.8-fold higher: 3.5 nM for the first, 0.4 nM for the second. The second is the more potent here.

Going from `CCN(CC)c1c(N[C@@H](Cc2ccc(-c3ccccc3OC)cc2)C(=O)O)c(=O)c1=O` to `CCN(CC)c1c(N[C@@H](Cc2ccc(OCc3c(Cl)cccc3Cl)cc2)C(=O)O)c(=O)c1=O`, the IC50 rises from 1.2 nM to 25 nM (21-fold). The first is the more potent here.
